Test results as given in PMC4960487, “Discovery and characterization of novel small-molecule CXCR4 receptor agonists and antagonists” (Scientific Reports, 2016).

Target: CXCR4 (Homo sapiens, UniProt P61073)
Test: fura-2 calcium mobilization in C8161 melanoma cells, antagonism of SDF-1
Assay type: cell-based

CXCR4, sequence (P61073 whole entry): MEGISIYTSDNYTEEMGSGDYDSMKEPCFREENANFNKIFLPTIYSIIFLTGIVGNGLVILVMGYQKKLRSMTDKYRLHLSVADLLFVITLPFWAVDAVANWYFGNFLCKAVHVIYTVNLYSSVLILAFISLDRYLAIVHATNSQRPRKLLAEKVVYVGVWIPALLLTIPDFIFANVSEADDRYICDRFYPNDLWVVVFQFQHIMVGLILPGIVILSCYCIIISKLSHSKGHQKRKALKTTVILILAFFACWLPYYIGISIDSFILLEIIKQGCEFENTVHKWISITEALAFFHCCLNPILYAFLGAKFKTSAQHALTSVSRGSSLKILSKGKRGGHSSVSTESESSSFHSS

| Substance | IC50 [nM] |
| --- | --- |
| NUCC-388 | 300 |
| NUCC-392 | 1000 |
| NUCC-54120 | 1000 |
